Laboratory results: patent publication EP0354042A2, “Aminobenzoic-acid derivatives to reduce side effects induced by an administration of immuno-suppressant” (priority 1988, dated 1990)

Tests used:
Jcl:ICR mice = assay: Acute toxicity (LD50, Litchfield-Wilcoxon); assay type: in vivo; details: observed 7 days; for LD₅₀ Value Intraperitoneal: in physiological saline solution; for LD₅₀ Value Oral: oral by stomach sonde, in distilled water
Procedure: The acute toxicity was studied with Jcl:ICR mice through intraperitoneal route and oral route. For intraperitoneal route, the present substance was dissolved in a physiological saline solution and a predetermined dose of the substance was administered with an injector to the cavity. For oral route, the present substance was dissolved in a distilled water and administered forcibly through a stomach sonde.
After the administration, observation of toxicopathic symptoms of the mice were continued for 7 days and based on time to time death rates of the mice, LD₅₀ values were calculated. Both surviving and dead mice were anatomized and observed certain organs.

[1] = test system: TA98 of Salmonella typhimurium; assay: Reversion assay (reversion colony test) TA98; assay type: cell-based
Procedure: (§1) In addition, a reversion assay was performed using TA98 and TA100 of Salmonella typhimurium (both are histidine-requiring bacteria).
(§2) 10% by volume of 0.5 mM bithion solution containing 0.5 mM histidine was added to a soft agar solution (prepared with 6g of NaCl, 6g of agar and 1,000 ml of distilled water). Then, 0.1 ml of a solution containing 1 x 10⁸ of the bacteria and 0.1 ml of a solution of the present substance were added to 2 ml of the soft agar solution, mixed well and obtained soft agar solution was multilayered on a minimal agar medium. The medium layered was cultured at 37°C for 2 days and number of reversion colonies was counted. Furylfuramide (AF2) was used as a positive control.

Wistar male rats [2] = assay: Serum biochemical test, total bilirubin (liver function) of rats given CsA with the present substance; assay type: in vivo; details: CsA 25 mg/kg/day i.p. 3 weeks plus present substance 300 mg/kg/day orally
Procedure: (§3) Various clearance tests and a saccharide tolerance test were performed after completion of the administrations. Then, after sacrificing the rats, their blood was taken for serum biochemical and general blood tests.

Bacillus subtilis H17 = assay: Mutagenicity Rec-assay, recombination repair proficient strain
Procedure: (§4) First, mutagenecity was studied with Rec-assay. […] The present substance was dissolved with sterlized water, 0.05 ml of the solution was absorbed by a round filter paper having a diameter of 8 mm and immediately the filter paper was laid on the medium (B-II agar) in a manner to cover each of the satrt point of the streak. Then, the mdium was cultured for 16 hours at a temperature of 37°C and measured growth inhibited area. Kanamycin was used as a negative control and mitomycin as a positive control.

[3] = Body weight of rats given CsA with the present substance; assay type: in vivo, Wistar male rats; details: at completion of the test; CsA 25 mg/kg/day i.p. 3 weeks plus present substance 300 mg/kg/day orally
Procedure: as §3

Bacillus subtilis M45 = assay: Mutagenicity Rec-assay, recombination repair deficient strain; details: for Growth Inhibited Area M45 - H17: difference between strains
Procedure: as §4

[4] = test system: TA100 of Salmonella typhimurium; assay: Reversion assay (reversion colony test) TA100; assay type: cell-based
Procedure: as §1, §2

human lymphocyte = assay: Mixed lymphocyte culture, 3H-thymidine uptake (proliferation of lymphocytes); assay type: cell-based; details: CsA 0.1 µg/ml plus present substance 100 µg/ml, cultured 6 days;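 note: percent suppression of proliferation derived from uptake with CsA alone versus CsA plus substance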
Procedure: A mixture of 50 µl of human lymphocyte (1.6 x 10⁶/ml) with 50 µl of the lymphocytes treated with mitomycin C (MMC) (1.7 x 10⁶/ml) was cultured for 6 days and an uptake of ³H-thymidine, an index of proliferation of lymphocyte, was studied. The medium used for culture comprised bovine fetal serum (10% in quantity) and RPMI 1640 (90% in quantity). […] From the calculated ratio, the effects of the present substance on immuno function were studied.

Wistar male rats [5] = assay: Saccharide tolerance test (pancreas function) of rats given CsA with the present substance; assay type: in vivo; details: CsA 25 mg/kg/day i.p. 3 weeks plus present substance 300 mg/kg/day orally
Procedure: as §3

Wistar male rats [6] = assay: Kidney function (inulin clearance, serum creatinine) of rats given CsA with the present substance; assay type: in vivo; details: CsA 25 mg/kg/day i.p. 3 weeks plus present substance 300 mg/kg/day orally
Procedure: as §3

[7] = 5,000 µg/disk, 37°C for 2 days, Drug-free Control 13
[8] = 5,000 µg/disk, 16 hours at 37°C
[9] = 5,000 µg/disk, 37°C for 2 days, Drug-free Control 149

Compound	LD₅₀ Value Intraperitoneal (Jcl:ICR mice)	LD₅₀ Value Oral (Jcl:ICR mice)	No. of Reversion Colony TA98 [1, 7]	TBI (seerum total bilirubin value) (Wistar male rats [2])	Growth Inhibited Area H17 (Bacillus subtilis H17; 500 µg/disk, 16 hours at 37°C)	Growth Inhibited Area H17 (Bacillus subtilis H17; [8])	Body Weight [3]	Growth Inhibited Area M45 (Bacillus subtilis M45; 500 µg/disk, 16 hours at 37°C)	Growth Inhibited Area M45 - H17 (Bacillus subtilis M45; 500 µg/disk)	Growth Inhibited Area M45 (Bacillus subtilis M45; [8])	Growth Inhibited Area M45 - H17 (Bacillus subtilis M45; 5,000 µg/disk)	No. of Reversion Colony TA100 [4, 9]	Depressing Ratio (human lymphocyte)	Blood sugar value measured 10 minutes after the test (Wistar male rats [5])	Insuline Value 10 Min.After The Test (Wistar male rats [5])	Insuline Value Before The Test (Wistar male rats [5])	Kidney Function Inulin Clearance (Wistar male rats [6])	Kidney Function Serum Creatinine (Wistar male rats [6])	other results
O=C(O)c1ccccc1NC1OC[C@@H](O)[C@H](O)[C@H]1O (stereo partly drawn) [Compound 8, o-Aminobenzoic acid-N-D-xyloside]	9270 mg/kg	6350 mg/kg	4 n/plate	0.38 mg/dL	0 mm	3 mm	211 g	0 mm	0 mm	7 mm	4 mm	166 n/plate	27%	605 mg/dL	6.18 mµ/ml	4.21 mµ/ml	1.72 mL/min	0.65 mg/dL	
NC[C@H]1O[C@H](O[C@H]2[C@H](O)[C@@H](O[C@H]3O[C@H](CO)[C@@H](O)[C@H](N)[C@H]3O)[C@H](N)C[C@@H]2N)[C@H](O)[C@@H](O)[C@@H]1O [Kanamycin, reference compound]																			Growth Inhibited Area H17 (Bacillus subtilis H17; Bacillus subtilis, 16 h, 10 µg/disk, pH 7): 4 mm; Growth Inhibited Area M45 (Bacillus subtilis M45; 10 µg/disk, negative control): 5 mm; Growth Inhibited Area M45 - H17 (Bacillus subtilis M45; 10 µg/disk, negative control): 1 mm
NC(=O)/C(=C\c1ccc([N+](=O)[O-])o1)c1ccco1 [Furylfuramide (AF2), Furylfuramide, reference compound]																			No. of Reversion Colony TA98 ([1]; 0.1 µg/disk, positive control): 167 n/plate; No. of Reversion Colony TA100 ([4]; 0.1 µg/disk, positive control): 911 n/plate
O=C(O)c1ccc(NC2OC[C@@H](O)[C@H](O)[C@H]2O)cc1 (stereo partly drawn) [Compound 6, p-Aminobenzoic acid-N-D-xyloside]	11040 mg/kg	11750 mg/kg	4 n/plate	0.35 mg/dL	0 mm	0 mm	208 g	0 mm	0 mm	0 mm	0 mm	58 n/plate	26%	598 mg/dL	6.20 mµ/ml	4.28 mµ/ml	1.70 mL/min	0.66 mg/dL	
O=C(O)c1ccc(NC2O[C@H](CO)[C@@H](O)[C@H](O)[C@H]2O)cc1 (stereo partly drawn) [Compound 10, p-Aminobenzoic acid-N-D-glucoside]	> 15000 mg/kg	> 15000 mg/kg	11 n/plate	0.36 mg/dL	0 mm	0 mm	235 g	0 mm	0 mm	0 mm	0 mm	104 n/plate	26%	612 mg/dL	6.02 mµ/ml	4.05 mµ/ml	1.85 mL/min	0.65 mg/dL	
O=C([O-])c1ccccc1NC1O[C@H](CO)[C@@H](O)[C@H](O)[C@H]1O.[Na+] (stereo partly drawn) [Compound 12, o-Aminobenzoic acid-N-D-glucoside]	13380 mg/kg	8960 mg/kg	5 n/plate	0.36 mg/dL	0 mm	2 mm	232 g	0 mm	0 mm	5 mm	3 mm	151 n/plate	27%	589 mg/dL	6.12 mµ/ml	4.11 mµ/ml	1.88 mL/min	0.64 mg/dL	
O=C(O)c1ccc(NC2O[C@H](CO)[C@@H](O)[C@H](O)[C@@H]2O)cc1 (stereo partly drawn) [Compound 22, p-Aminobenzoic acid-N-D-mannoside]	> 10000 mg/kg	>10000 mg/kg	5 n/plate	0.27 mg/dL	0 mm	0 mm	245 g	0 mm	0 mm	0 mm	0 mm	138 n/plate	28%	569 mg/dL	6.50 mµ/ml	4.45 mµ/ml	2.05 mL/min	0.63 mg/dL	
O=C([O-])c1ccccc1NC1O[C@H](CO)[C@H](O)[C@H](O)[C@H]1O.[Na+] (stereo partly drawn) [Compound 16, o-Aminobenzoic acid-N-D-galactoside]	7420 mg/kg	6100 mg/kg	6 n/plate	0.34 mg/dL	0 mm	1 mm	210 g	0 mm	0 mm	6 mm	5 mm	151 n/plate	26%	587 mg/dL	6.16 mµ/ml	4.22 mµ/ml	1.81 mL/min	0.65 mg/dL	
O=C(O)c1cccc(NC2O[C@H](CO)[C@@H](O)[C@H](O)[C@@H]2O)c1 (stereo partly drawn) [Compound 24, m-Aminobenzoic acid-N-D-mannoside]	> 10000 mg/kg	> 10000 mg/kg	6 n/plate	0.30 mg/dL	0 mm	1 mm	240 g	0 mm	0 mm	7 mm	6 mm	90 n/plate	27%	578 mg/dL	6.37 mµ/ml	4.40 mµ/ml	2.00 mL/min	0.64 mg/dL	
O=C([O-])c1ccccc1NC1OCC(O)C(O)C1O.[Na+] [Compound 4, o-Aminobenzoic acid-N-L-arabinoside]	7480 mg/kg	6350 mg/kg	4 n/plate	0.37 mg/dL	0 mm	4 mm	218 g	0 mm	0 mm	8 mm	4 mm	59 n/plate	26%	591 mg/dL	6.22 mµ/ml	3.89 mµ/ml	1.78 mL/min	0.67 mg/dL	
